Structures are written as SMILES.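 All cell lines were grown in 96-well plates and treated with compound for 48 hours. Definition used: TGI = concentration required for complete inhibition of growth.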

The subject of one assay is SK-MEL-2 melanoma. Briefly: NCI anticancer screen, dose series, 48 h.
For the compound `COc1ccc2[nH]cc(CCNC(=O)[C@H](Cc3ccccc3)NC(=O)[C@@H](NCC(F)(F)F)C(C)C)c2c1`, the TGI was 38.3 µM.

Compound `C=CCNC1=C2C[C@@H](C)C[C@@H](OC)[C@H](OC(=O)CCN)[C@H](C)/C=C(\C)[C@@H](OC(N)=O)[C@H](OC)/C=C\C=C(/C)C(=O)NC(=CC1=O)C2=O` yielded a TGI of 7.12 µM.

Turning to `C1=NCCN2CCN(CCN=Cc3ccc(cc3)OCc3cccc(n3)COc3ccc1cc3)CC2`, the TGI was over 50 µM.

`CCc1n[nH]c(=O)n1/N=C/c1c(O)ccc2ccccc12` returned a TGI of over 100 µM.

Consider `CCOC(=O)c1cccn1S(=O)(=O)c1cc(Cl)ccc1NC(=O)CC`, for which the TGI is over 100 µM.

Consider `C=CCN1C(=O)C=C(c2ccccc2)n2ncc3cccc1c32`, for which the TGI is over 100 µM.

`CC(=O)OC1COC(n2c(O)c(N=NC(N)=S)c3cc(Br)ccc32)C(OC(C)=O)C1OC(C)=O` (centres undefined) came in with a TGI of over 100 µM.

In the case of `CN(C)CCCSc1nc2ccccc2[nH]1`, the TGI was over 100 µM.

The test system of a further assay is UACC-257 melanoma. Kind of assay: NCI anticancer screen, dose series, 48 h.
For the compound `O=C1/C(=C/c2cccc(Br)c2)CCc2ccccc21`, the TGI came to 28.6 µM.

With `CC1C2(C)OC(=N)C(C#N)(C(c3ccccc3)O2)C1(C#N)C#N` (centres undefined), the TGI was found to be 68.7 µM.

Compound `O=C1NC2ON=C(c3ccccc3)C2C2ON=C(c3ccccc3)N12` (centres undefined) returned a TGI of over 100 µM.

As for `CCCCCCCCCCCCCCCCCCNC(=O)C(N)Cc1ccc(OCc2ccccc2)cn1` (centres undefined), the TGI stood at 43.7 µM.

As to `CN(C)Nc1cc(=O)[nH]c(=O)[nH]1`, the TGI was over 100 µM.

Consider `O=[N+]([O-])/C(C(Cl)=C(Cl)Cl)=C(\N1CCOCC1)n1nnc2ccccc21`, for which the TGI was 50.7 µM.

`O=c1c2c(oc3ccccc13)-c1ccccc1OC2` displayed a TGI of over 100 µM.

As for `CCc1c2c([nH]c(=S)c1C#N)CCC2`, the TGI was over 100 µM.

Take `O=C1/C(=C/c2cccc(F)c2)CCCc2ccccc21`: the TGI is 30.6 µM.

Turning to `COc1ccc2[nH]cc(CCNC(=O)[C@H](Cc3ccccc3)NC(=O)[C@@H](NCC(F)(F)F)C(C)C)c2c1`, the TGI came out at 37.8 µM.

In turn, `C=CCNC1=C2C[C@@H](C)C[C@@H](OC)[C@H](OC(=O)CCN)[C@H](C)/C=C(\C)[C@@H](OC(N)=O)[C@H](OC)/C=C\C=C(/C)C(=O)NC(=CC1=O)C2=O` yielded a TGI of 10.3 µM.

`C1=NCCN2CCN(CCN=Cc3ccc(cc3)OCc3cccc(n3)COc3ccc1cc3)CC2` showed a TGI of over 50 µM.

Turning to `CCc1n[nH]c(=O)n1/N=C/c1c(O)ccc2ccccc12`, the TGI was over 100 µM.

For `CCOC(=O)c1cccn1S(=O)(=O)c1cc(Cl)ccc1NC(=O)CC`, the TGI is over 100 µM.

With `C=CCN1C(=O)C=C(c2ccccc2)n2ncc3cccc1c32`, the TGI is over 100 µM.

Take `CC(=O)OC1COC(n2c(O)c(N=NC(N)=S)c3cc(Br)ccc32)C(OC(C)=O)C1OC(C)=O` (centres undefined): the TGI is over 100 µM.

The compound `CN(C)CCCSc1nc2ccccc2[nH]1` gave a TGI of over 100 µM.

The subject of another assay is SR leukemia. Briefly: NCI anticancer screen, dose series, 48 h.
Turning to `O=C1/C(=C/c2cccc(Br)c2)CCc2ccccc21`, the TGI came to 18.4 µM.

`CN(C)Nc1cc(=O)[nH]c(=O)[nH]1` yielded a TGI of over 100 µM.

As for `CCc1c2c([nH]c(=S)c1C#N)CCC2`, the TGI was over 100 µM.

`O=C1/C(=C/c2cccc(F)c2)CCCc2ccccc21` came in with a TGI of 32.8 µM.

As to `COc1ccc2[nH]cc(CCNC(=O)[C@H](Cc3ccccc3)NC(=O)[C@@H](NCC(F)(F)F)C(C)C)c2c1`, the TGI is over 100 µM.

As for `C=CCNC1=C2C[C@@H](C)C[C@@H](OC)[C@H](OC(=O)CCN)[C@H](C)/C=C(\C)[C@@H](OC(N)=O)[C@H](OC)/C=C\C=C(/C)C(=O)NC(=CC1=O)C2=O`, the TGI was over 100 µM.

Turning to `C1=NCCN2CCN(CCN=Cc3ccc(cc3)OCc3cccc(n3)COc3ccc1cc3)CC2`, the TGI was over 50 µM.

For `CCc1n[nH]c(=O)n1/N=C/c1c(O)ccc2ccccc12`, the TGI was over 100 µM.

`C=CCN1C(=O)C=C(c2ccccc2)n2ncc3cccc1c32` displayed a TGI of over 100 µM.

For the compound `CC(=O)OC1COC(n2c(O)c(N=NC(N)=S)c3cc(Br)ccc32)C(OC(C)=O)C1OC(C)=O` (centres undefined), the TGI was over 100 µM.

In turn, `CN(C)CCCSc1nc2ccccc2[nH]1` yielded a TGI of over 100 µM.

The subject of a further assay is NCI-H226 lung. Kind of assay: NCI anticancer screen, dose series, 48 h.
In the case of `O=C1/C(=C/c2cccc(Br)c2)CCc2ccccc21`, the TGI is 31.1 µM.

The compound `CC1C2(C)OC(=N)C(C#N)(C(c3ccccc3)O2)C1(C#N)C#N` (centres undefined) came in with a TGI of over 100 µM.

`O=C1NC2ON=C(c3ccccc3)C2C2ON=C(c3ccccc3)N12` (centres undefined) showed a TGI of over 100 µM.

Take `CN(C)Nc1cc(=O)[nH]c(=O)[nH]1`: the TGI was over 100 µM.

`O=[N+]([O-])/C(C(Cl)=C(Cl)Cl)=C(\N1CCOCC1)n1nnc2ccccc21` returned a TGI of 58.7 µM.

In the case of `O=c1c2c(oc3ccccc13)-c1ccccc1OC2`, the TGI was over 100 µM.

`CCc1c2c([nH]c(=S)c1C#N)CCC2` yielded a TGI of over 100 µM.

Take `O=C1/C(=C/c2cccc(F)c2)CCCc2ccccc21`: the TGI was found to be 27.7 µM.

Regarding `COc1ccc2[nH]cc(CCNC(=O)[C@H](Cc3ccccc3)NC(=O)[C@@H](NCC(F)(F)F)C(C)C)c2c1`, the TGI is 44 µM.

Compound `C1=NCCN2CCN(CCN=Cc3ccc(cc3)OCc3cccc(n3)COc3ccc1cc3)CC2` yielded a TGI of over 50 µM.

The compound `C=CCN1C(=O)C=C(c2ccccc2)n2ncc3cccc1c32` had a TGI of over 100 µM.

Take `CC(=O)OC1COC(n2c(O)c(N=NC(N)=S)c3cc(Br)ccc32)C(OC(C)=O)C1OC(C)=O` (centres undefined): the TGI is over 100 µM.

In the case of `CN(C)CCCSc1nc2ccccc2[nH]1`, the TGI was over 100 µM.

The next assay deals with SN12C renal. Kind of assay: NCI anticancer screen, dose series, 48 h.
`O=C1/C(=C/c2cccc(Br)c2)CCc2ccccc21` had a TGI of 29.2 µM.

As to `CC1C2(C)OC(=N)C(C#N)(C(c3ccccc3)O2)C1(C#N)C#N` (centres undefined), the TGI was 32 µM.

In turn, `CCCCCCCCCCCCCCCCCCNC(=O)C(N)Cc1ccc(OCc2ccccc2)cn1` (centres undefined) showed a TGI of 49.3 µM.

Consider `CN(C)Nc1cc(=O)[nH]c(=O)[nH]1`, for which the TGI was over 100 µM.

The compound `O=[N+]([O-])/C(C(Cl)=C(Cl)Cl)=C(\N1CCOCC1)n1nnc2ccccc21` returned a TGI of 42.9 µM.

Compound `O=c1c2c(oc3ccccc13)-c1ccccc1OC2` had a TGI of over 100 µM.

Take `O=C1/C(=C/c2cccc(F)c2)CCCc2ccccc21`: the TGI was 31.8 µM.

In turn, `COc1ccc2[nH]cc(CCNC(=O)[C@H](Cc3ccccc3)NC(=O)[C@@H](NCC(F)(F)F)C(C)C)c2c1` had a TGI of 49 µM.

In turn, `C=CCNC1=C2C[C@@H](C)C[C@@H](OC)[C@H](OC(=O)CCN)[C@H](C)/C=C(\C)[C@@H](OC(N)=O)[C@H](OC)/C=C\C=C(/C)C(=O)NC(=CC1=O)C2=O` displayed a TGI of 16.2 µM.

Regarding `C1=NCCN2CCN(CCN=Cc3ccc(cc3)OCc3cccc(n3)COc3ccc1cc3)CC2`, the TGI is over 50 µM.

`CCc1n[nH]c(=O)n1/N=C/c1c(O)ccc2ccccc12` had a TGI of over 100 µM.

The compound `CCOC(=O)c1cccn1S(=O)(=O)c1cc(Cl)ccc1NC(=O)CC` displayed a TGI of over 100 µM.

`C=CCN1C(=O)C=C(c2ccccc2)n2ncc3cccc1c32`: the TGI is over 100 µM.

`CC(=O)OC1COC(n2c(O)c(N=NC(N)=S)c3cc(Br)ccc32)C(OC(C)=O)C1OC(C)=O` (centres undefined): the TGI was over 100 µM.

The compound `CN(C)CCCSc1nc2ccccc2[nH]1` showed a TGI of over 100 µM.

The subject of the next assay is ACHN renal. Briefly: NCI anticancer screen, dose series, 48 h.
Take `O=C1/C(=C/c2cccc(Br)c2)CCc2ccccc21`: the TGI was found to be 27.7 µM.

For the compound `CC1C2(C)OC(=N)C(C#N)(C(c3ccccc3)O2)C1(C#N)C#N` (centres undefined), the TGI is over 100 µM.

`O=C1NC2ON=C(c3ccccc3)C2C2ON=C(c3ccccc3)N12` (centres undefined) displayed a TGI of over 100 µM.

In turn, `CCCCCCCCCCCCCCCCCCNC(=O)C(N)Cc1ccc(OCc2ccccc2)cn1` (centres undefined) gave a TGI of 56.4 µM.

With `CN(C)Nc1cc(=O)[nH]c(=O)[nH]1`, the TGI is over 100 µM.

The record behind these values is PubChem BioAssay (NCI).
